Assay results from patent US9505709B2, “Compositions and methods relating to ionic salts of peptides” (Thetis Pharmaceuticals LLC, priority 2014, dated 2016).

Experiments:
[1] = Oral pharmacokinetics (oral gavage), plasma free EPA or free DHA; type: in vivo, Sprague-Dawley rats; conditions: rat
Experimental: Experiments via Oral Gavage: Oral pharmacokinetic parameters of TP-212 (Lysyl-Lysine Bis-EPA), TP-312 (Lysyl-Lysine Bis-DHA), EPA-EE, EPA FFA and DHA FFA were determined in Sprague-Dawley rats. EPA-EE is 97% pure ethyl ester form of eicosapentaenoic acid. It is the principal polyunsaturated fatty acid in Vascepa, an Omega-3 compound approved in the U.S. for the treatment of severe hypertriglyceridemia. EPA FFA is 97% pure free fatty acid form of eicosapentaenoic acid and DHA FFA is 98% pure free fatty acid DHA. EPA FFA and DHA FFA are the two principal poly-unsaturated fatty acids in Epanova, an Omega-3 compound approved in the U.S. for the treatment of severe hypertriglyceridemia. The subject drugs were administered by oral gavage as an aqueous solution in de-ionized water to 6 Sprague-Dawley rats per group (3 males and 3 females). Rats were dosed at 40 mg/kg. Blood samples were obtained from each rat by jugular vein catheter. Samples were collected at pre-dose and at 0.25, 0.5, 1, 2, 4, 8, 12 and 18 hours post dose. Blood samples were centrifuged to separate red blood cells and the resulting plasma samples were analyzed for free EPA or free DHA. Free EPA or […] extracted from rat plasma with hexane at acidic condition without hydrolysis. Detection was by MS-MS monitoring of negative ion for EPA or DHA. Calculated pharmacokinetic values are mean values from 6 rats for each study drug.
(§1) For all figures and tables, the data are adjusted as follows for comparative purposes. First, the actual plasma levels are baseline adjusted. Thus, for each study arm, the pre-dose level (time=0) is subtracted from the actual plasma levels at each time point, with negative values adjusted to zero. Second, these baseline adjusted values are further adjusted to be molar dose equivalent on a comparative basis among the study arms with respect to EPA or DHA payload (i.e., as if equal amounts of free fatty acid EPA or DHA are administered in each study arm).

[2] = Intravenous injection pharmacokinetics, plasma free EPA or free DHA; type: in vivo, Sprague-Dawley rats; conditions: rat
Experimental: Experiments via Intravenous Injection: TP-212 and TP-312 were administered by intravenous injection (20 mg/kg) to Sprague-Dawley rats (n=6/group—3 male and 3 female), and plasma was obtained from serial blood samples taken from each animal at scheduled times ([…]). Blood samples were centrifuged to separate red blood cells and the resulting plasma samples were analyzed for free EPA or free DHA. Free EPA or free DHA was extracted from rat plasma with hexane at acidic condition without hydrolysis. Detection was by MS-MS monitoring of negative ion for EPA or DHA. Calculated pharmacokinetic values are mean values from 6 rats for each study drug.
as §1

Balb/C mice = test: Ocular irritation after topical dosing to the cornea (hyperemia, squinting, discharge, lid swelling); type: in vivo; conditions: for Hyperemia: 3 μL drop in each eye four times daily for 3 days
Experimental: In an embodiment where the ophthalmic formulation is an aqueous formulation, it has been determined in mice that certain formulations can be administered to the surface of the eye without producing irritation that would make them unsuitable for such application. Irritation parameters of TP-211-1, TP-212-1, TP-311-1 and TP-312-1 related to hyperemia, squinting, and discharge were determined in Balb/C mice. Mice were dosed topically to the cornea using a calibrated micropipette, with a 3 μL drop of treatment in each eye four times daily for 3 consecutive days at various concentrations.
TP-211-1 is Lysyl-lysine EPA. TP-212-1 is Lysyl-lysine bis-EPA. TP-311-1 is Lysyl-lysine DHA. TP-312-1 is Lysyl-lysine bis-DHA. The study drugs were prepared using phosphate buffered saline (PBS) to reach target concentrations ranging from 0.1% to 1.0%.
The animals were monitored for scratching at the eye or any other abnormal behavior post-dose. Ocular exams were conducted on Days 1 and 3 with use of a Micron III camera system to take high resolution videos of the right eye of each animal Clinical signs including but not limited to hyperemia, discharge, lid swelling, and squinting were evaluated by trained personnel who was masked as to group assignment. Each clinical sign was graded on a scale of 0-4, with the exception of lid swelling which was graded on a scale of 0-2. Scores were averaged and are expressed as the mean±SEM for each group. Statistical significance was assessed between the treatment arms and the vehicle group. Any significance is noted by asterisks (*=p<0.05, **=p<0.01, ***=p<0.001).

[3] = Stability analysis by 1H NMR of samples exposed to air and light; conditions: ambient temperature
Experimental: Stability analysis was performed using 1H NMR (400 MHz) with acetic acid-d4 at various time point (typically days 1, 14, 30 and 60) using samples exposed to air and light at ambient temperature (clear vials with no caps).

[4] = oral gavage 40 mg/kg, molar dose equivalent, baseline adjusted
[5] = intravenous injection 20 mg/kg, molar dose equivalent, baseline adjusted

In the case of CC/C=C\C/C=C\C/C=C\C/C=C\C/C=C\C/C=C\CCC(=O)O.CC/C=C\C/C=C\C/C=C\C/C=C\C/C=C\C/C=C\CCC(=O)O.NCCCC[C@H](NC(=O)[C@@H](N)CCCCN)C(=O)O [Compound 4, (L,L) Lysyl-lysine bis DHA], the “Tmax (free DHA)” value ([1]; oral gavage 40 mg/kg) is reported as 2 h, the “Plasma level of free DHA” value ([1]; oral gavage 40 mg/kg, 0 h (pre-dose), molar dose equivalent, baseline adjusted) is reported as 0 ng/mL and the “Plasma level of free DHA” value ([1]; oral gavage 40 mg/kg, 0.25 h (15 min), molar dose equivalent, baseline adjusted) is reported as 0 ng/mL. For the same molecule, the “Plasma level of free DHA” value ([1]; oral gavage 40 mg/kg, 0.5 h (30 min), molar dose equivalent, baseline adjusted) was 4600 ng/mL, the “Plasma level of free DHA” value ([1]; oral gavage 40 mg/kg, 1 h (60 min), molar dose equivalent, baseline adjusted) was 6300 ng/mL and the “Plasma level of free DHA” value ([1]; oral gavage 40 mg/kg, 2 h (120 min), molar dose equivalent, baseline adjusted) was 10400 ng/mL. For the same molecule, the “Plasma level of free DHA” value ([1]; oral gavage 40 mg/kg, 4 h (240 min), molar dose equivalent, baseline adjusted) was 5600 ng/mL, the “Plasma level of free DHA” value ([1]; oral gavage 40 mg/kg, 8 h, molar dose equivalent, baseline adjusted) was 1400 ng/mL and the “Plasma level of free DHA” value ([1]; oral gavage 40 mg/kg, 12 h, molar dose equivalent, baseline adjusted) was 0 ng/mL. For the same molecule, the “Plasma level of free DHA” value ([1]; oral gavage 40 mg/kg, 18 h, molar dose equivalent, baseline adjusted) was 0 ng/mL, the “AUC 0-1 hrs (free DHA)” value [1, 4] was 3300 ng·h/mL and the “AUC 0-4 hrs (free DHA)” value [1, 4] was 27600 ng·h/mL. For the same molecule, the “AUC 0-18 hrs (free DHA)” value [1, 4] was 44400 ng·h/mL, the “Cmax (free DHA)” value [1, 4] was 10400 ng/mL and the “AUC over 18 hours (free DHA), times greater than DHA-FFA” value ([1]; oral gavage) was “approximately 1.2 times”. For the same molecule, the “Cmax (free DHA), times greater than DHA-FFA” value ([1]; oral gavage) was “approximately 3.0 times”, the “Tmax (free DHA)” value ([2]; intravenous injection 20 mg/kg) was 1 min and the “Plasma level of free DHA” value ([2]; intravenous injection 20 mg/kg, 1 min, molar dose equivalent, baseline adjusted) was 66400 ng/mL. The “Plasma level of free DHA” value ([2]; intravenous injection 20 mg/kg, 5 min, molar dose equivalent, baseline adjusted) was 15100 ng/mL, the “Plasma level of free DHA” value ([2]; intravenous injection 20 mg/kg, 10 min, molar dose equivalent, baseline adjusted) was 16600 ng/mL and the “Plasma level of free DHA” value ([2]; intravenous injection 20 mg/kg, 15 min, molar dose equivalent, baseline adjusted) was 17500 ng/mL. The “Plasma level of free DHA” value ([2]; intravenous injection 20 mg/kg, 30 min, molar dose equivalent, baseline adjusted) was 16400 ng/mL, the “Plasma level of free DHA” value ([2]; intravenous injection 20 mg/kg, 60 min, molar dose equivalent, baseline adjusted) was 12900 ng/mL and the “Plasma level of free DHA” value ([2]; intravenous injection 20 mg/kg, 120 min, molar dose equivalent, baseline adjusted) was 8500 ng/mL. For the same molecule, the “Plasma level of free DHA” value ([2]; intravenous injection 20 mg/kg, 240 min, molar dose equivalent, baseline adjusted) was 7800 ng/mL, the “Plasma level of free DHA” value ([2]; intravenous injection 20 mg/kg, first line (time printed as dash, pre-dose), molar dose equivalent, baseline adjusted) was 0 ng/mL and the “AUC 0-1 hrs (free DHA)” value [2, 5] was 16300 ng·h/mL. The “AUC 0-4 hrs (free DHA)” value [2, 5] was 43300 ng·h/mL, the “Cmax (free DHA)” value [2, 5] was 66400 ng/mL and the “AUC over 1 hour (free DHA), times greater than DHApo” value ([2]; intravenous vs oral gavage) was ~14.7 times. The “AUC over 1 hour (free DHA), times greater than TP-312po” value ([2]; intravenous vs oral gavage) was “approximately 4.9 times”, the “AUC over 4 hours (free DHA), times greater than DHApo” value ([2]; intravenous vs oral gavage) was ~5.0 times and the “AUC over 4 hours (free DHA), times greater than TP-312po” value ([2]; intravenous vs oral gavage) was “approximately 1.6 times”. The “Cmax (free DHA), times greater than DHApo” value ([2]; intravenous vs oral gavage) was ~19.3 times, the “Cmax (free DHA), times greater than TP-312po” value ([2]; intravenous vs oral gavage) was “approximately 6.4 times” and the Hyperemia (Balb/C mice; 0.1% concentration in PBS) was “did not cause any significant increase in hyperemia after the first dose”. For the same molecule, the Hyperemia (Balb/C mice; 0.5% concentration in PBS) was “some initial hyperemia after the first dose”, the Hyperemia (Balb/C mice; 1.0% concentration in PBS) was “some initial hyperemia after the first dose” and the Squinting (Balb/C mice; all concentrations tested, topical to cornea) was “none of the concentrations caused squinting throughout the study”. For the same molecule, the “Hyperemia at last dose / final evaluation” value (Balb/C mice; concentrations that showed an initial increase or all tested, last dose / final evaluation (Day 3)) was “remained at baseline levels of hyperemia by the last dose of the day”, the “Concentration at which not irritating / well tolerated” value (Balb/C mice; topical to cornea four times daily for 3 days) was “less than 1.0%” and the “Stability by NMR (amount of sample remaining relative to original sample)” value ([3]; Day 3) was 1 (1 = >95%). For the same molecule, the “Stability by NMR (amount of sample remaining relative to original sample)” value ([3]; Day 14) was 1 (1 = >95%), the “Stability by NMR (amount of sample remaining relative to original sample)” value ([3]; Day 30) was 1 (1 = >95%) and the “Stability by NMR (amount of sample remaining relative to original sample)” value ([3]; Day 60) was 1 (1 = >95%).
